In PMC6017046, “Synergistic Promotion on Tyrosinase Inhibition by Antioxidants” (Molecules : A Journal of Synthetic Chemistry and Natural …, 2018):

Key:
[1] = DPPH free radical-scavenging capacity assay; conditions: 0.1 mmol/L DPPH, 30 min, absorbance 517 nm; read-out: IC50 of antioxidant solutions (DPPH scavenging / DPPH clearance rate)
Experimental: The DPPH free radical-scavenging capacity of the samples are determined according to the method of a previous study with slight modifications. Samples (100l) of various concentrations are added to 100 µL of 0.1 mmol/L DPPH solution in methanol at room temperature. After 30 min, the absorbance is measured at 517 nm with a UV-visible spectrophotometer (MAPADA UV-6100PCS, Shanghai, China). The percentage of free radical (DPPH) scavenging activity (I%) is calculated according to following formula: I%=ODck−ODsample/ODck×100 where ODck is the absorbance of the control reaction, which involves all the reagents except the test compound, and ODsample is the absorbance of the test compound.

[2] = target: T1, Mushroom tyrosinase (Agaricus bisporus, UniProt C7FF04); assay: Mushroom tyrosinase inhibitory assay, L-tyrosine as substrate; type: biochemical
Experimental: Inhibitory activity against tyrosinase is examined through an improved spectrophotometric method using L-DOPA and L-tyrosine as substrates. […] The reaction mixture is incubated at 37 °C for 15 min. Mushroom tyrosinase (40 µL, 200 units/mL) is added to the reaction mixture and incubated at 30 °C for 20 min.
(§1) Dopachrome formation is monitored at 475 nm with a UV-visible spectrophotometer (MAPADA UV-6100PCS). The rate of the inhibition of tyrosinase activity (I%) is determined according to the following formula: I%=(A2−A1)−(B2−B1)/(A2−A1)×100 where A1 and A2 are the absorbance values of the blank at 475 nm at 0 min and 20 min, respectively, and B1 and B2 is the absorbance levels of the test sample at 475 nm at 0 min and 20 min, respectively.
The 50% inhibition concentration (IC50) value is determined with SPSS 17.0 statistical software (International Business Machines Corporatio, Armonk, NY, USA). All experiments are performed at least in triplicate. Data are analyzed by unpaired Student’s t-test, followed by Dunnett’s multiple comparison test (SPSS version 17.0). P values lower than 0.05 are considered significant. The interactions are calculated using combination index (CI) according to [22]: CI=IC50amix/IC50a+IC50bmix/IC50b where IC50a and IC50b are obtained from pure compounds, and IC50amix is the concentration of individual compound in the mixture that cause 50% inhibition. Obtained CI values equal, smaller, or greater than 1 indicate an additive, synergistic, or antagonistic effect, respectively.

[3] = target: T1, Mushroom tyrosinase; conditions: ref 1 (GLA), ref 25 (OXYR), ref 26 (RES); cited from earlier work
[4] = target: T1, Mushroom tyrosinase; assay: Mushroom tyrosinase inhibitory assay, L-DOPA as substrate; type: biochemical; conditions: read-out: IC50, tyrosinase activity, single compounds
Experimental: The reaction mixture is incubated at 37 °C for 15 min. Subsequently, 40 µL of 100 units/mL mushroom tyrosinase is added to the reaction mixtures and incubated at 37 °C for 20 min. […] The reaction mixture is incubated at 37 °C for 15 min. Subsequently, 40 µL of 5 mM L-DOPA is added to the reaction mixture and incubated at 30 °C for 20 min.
as §1
The 50% inhibition concentration (IC50) value is determined with SPSS 17.0 statistical software (International Business Machines Corporatio, Armonk, NY, USA). All experiments are performed at least in triplicate. Data are analyzed by unpaired Student’s t-test, followed by Dunnett’s multiple comparison test (SPSS version 17.0). P values lower than 0.05 are considered significant. […]

[5] = target: T2, tyrosinase activity of PIG1 cells (Homo sapiens, UniProt P14679); assay: Intracellular tyrosinase activity assay in UVB-irradiated PIG1 cells (L-DOPA oxidation); type: cell-based; conditions: 300 mJ/cm^2 UVB, 24 h, L-DOPA substrate, read-out: IC50, inhibition against tyrosinase activities
T2 construct: The intracellular tyrosinase activity of the PIG1 cells; host or cells: PIG1 immortalized human epidermal melanocytes
T2 sequence (P14679 19-529): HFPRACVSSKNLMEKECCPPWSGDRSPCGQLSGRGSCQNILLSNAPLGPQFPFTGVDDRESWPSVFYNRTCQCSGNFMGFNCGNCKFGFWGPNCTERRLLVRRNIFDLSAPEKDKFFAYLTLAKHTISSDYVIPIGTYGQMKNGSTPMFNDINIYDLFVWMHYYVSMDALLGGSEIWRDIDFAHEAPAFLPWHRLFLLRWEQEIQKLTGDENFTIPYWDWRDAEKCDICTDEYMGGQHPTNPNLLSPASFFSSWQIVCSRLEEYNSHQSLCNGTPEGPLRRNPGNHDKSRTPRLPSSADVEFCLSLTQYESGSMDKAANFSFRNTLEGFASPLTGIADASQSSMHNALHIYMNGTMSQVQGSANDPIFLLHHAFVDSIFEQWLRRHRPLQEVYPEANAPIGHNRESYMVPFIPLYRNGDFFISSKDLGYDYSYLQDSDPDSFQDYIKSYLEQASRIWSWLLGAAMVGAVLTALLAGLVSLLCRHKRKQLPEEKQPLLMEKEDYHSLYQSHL
Experimental: Immortalized human epidermal melanocyte cells from cell line PIG1 are obtained from Shanghai Guandao Bio-engineering Ltd. Co. (Shanghai, China). PIG1 cells are cultured at 37 °C with 5% CO2 in Medium 254 (#M-254-500, Thermo Fisher Scientific, New York, NY, USA) supplemented with human melanocyte growth supplement-2 (Thermo Fisher Scientific, New York, NY, USA) and 5% (v/v) fetal bovine serum (Thermo Fisher Scientific, New York, NY, USA).
The UVB source employed in this study is a Sigma SH4B light therapy device (Shanghai SIGMA High-tech Co., Ltd., Shanghai, China). […] UVB irradiation treatment is conducted when cells reached approximately 70% confluence according to the methods of Zeng et al. [19]. Before UVB irradiation, the supernatant is removed and replaced with PBS. […] The control group receives the same treatment as the UVB group but is not administered any drug.
PIG1 cells (1 × 10^4 cells/well) are seeded in 96-well plates and incubated for 24 h in CO2 until 70–80% confluence is reached. Subsequently, the complete medium is replaced with 100 µL of PBS, and the cells are exposed to 300 mJ/cm^2 UVB irradiation. […] The intracellular tyrosinase activity of the PIG1 cells are estimated by measuring the L-DOPA oxidation capacity according to the method of Rong et al. [21]. […] The products of the reaction are measured by reading the absorbance at 475 nm.

T1 sequence (C7FF04 1-392): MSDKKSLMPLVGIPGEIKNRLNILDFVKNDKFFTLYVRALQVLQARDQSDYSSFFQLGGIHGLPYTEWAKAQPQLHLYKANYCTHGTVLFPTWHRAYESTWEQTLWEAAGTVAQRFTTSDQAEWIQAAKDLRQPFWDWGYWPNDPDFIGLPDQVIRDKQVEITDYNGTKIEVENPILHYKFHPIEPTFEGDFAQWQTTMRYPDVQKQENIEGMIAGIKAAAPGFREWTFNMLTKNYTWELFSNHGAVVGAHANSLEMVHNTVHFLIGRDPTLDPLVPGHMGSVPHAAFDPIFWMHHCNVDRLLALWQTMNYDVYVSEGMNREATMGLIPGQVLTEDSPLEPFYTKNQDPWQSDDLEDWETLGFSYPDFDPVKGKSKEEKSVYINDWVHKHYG

Compound	IC50 [1] [µM]	IC50 [2] [µM]	mode of tyrosinase inhibition [3]	IC50 ([2]; L-Tyrosine as substrate, read-out: IC50, tyrosinase activity, single compounds) [µM]	IC50 [4] [µM]	IC50 [5] [µM]
CC1(C)C=Cc2c(ccc3c2OC[C@@H](c2ccc(O)cc2O)C3)O1 [GLA, Glabridin]	458 ± 0.037	1.5 ± 0.03	non-competitive			
Oc1cc(O)cc(/C=C/c2ccc(O)cc2O)c1 [OXYR, Oxyresveratrol]	76 ± 0.07	2.5 ± 0.06	non-competitive			
CC(c1ccccc1)c1ccc(O)cc1O (centres unmarked) [PR, Phenylethylresorcinol]	119 ± 0.07		non-competitive	0.28 ± 0.03	35.5 ± 0.06	
Oc1ccc(/C=C/c2cc(O)cc(O)c2)cc1 [RES, Resveratrol]	142 ± 0.03	23 ± 0.05	Kcat or suicide inhibitor			> 100
